The numbers were not newly measured in article PMC6099358 (Diabetes, Obesity & Metabolism, 2018), which cites them from elsewhere.

Each structure is given as a SMILES string. Read-outs that look alike come from different tables or passages of the source.

The subject of the series is participants with T1DM. As to conditions: cited from earlier work; for DKA events, certain / DKA events, potential: 24 weeks.

As to `CCOc1ccc(Cc2cc([C@@H]3O[C@H](CO)[C@@H](O)[C@H](O)[C@H]3O)ccc2Cl)cc1` [dapagliflozin], where the note is “5 mg”, the “DKA events, certain” value is 4 [1%] participants [%] and the “DKA events, potential” value was 16 [6%] participants [%]. Besides, for the setting “10 mg”, the “DKA events, certain” value was 5 [2%] participants [%] and the “DKA events, potential” value was 19 [6%] participants [%].
For `Cc1ccc([C@@H]2O[C@H](CO)[C@@H](O)[C@H](O)[C@H]2O)cc1Cc1ccc(-c2ccc(F)cc2)s1` [canagliflozin], the DKA is 5 [4.3%] participants [%] (100 mg, vs placebo 0) and 7 [6.0%] participants [%] (300 mg, vs placebo 0).
`CCOc1ccc(Cc2cc([C@@H]3O[C@H](SC)[C@@H](O)[C@H](O)[C@H]3O)ccc2Cl)cc1` [sotagliflozin]: the DKA (vs placebo 4 [0.6%]) is 21 [3.0%] participants [%].
